# Data taken from patent US20250099448A1, “HETEROCYCLIC COMPOUNDS” (Hoffmann-La Roche Inc., priority 2022, published 2025).
# Target: T1, MAGL protein (Homo sapiens, UniProt Q99685)
# T1 sequence (Q99685 1-303): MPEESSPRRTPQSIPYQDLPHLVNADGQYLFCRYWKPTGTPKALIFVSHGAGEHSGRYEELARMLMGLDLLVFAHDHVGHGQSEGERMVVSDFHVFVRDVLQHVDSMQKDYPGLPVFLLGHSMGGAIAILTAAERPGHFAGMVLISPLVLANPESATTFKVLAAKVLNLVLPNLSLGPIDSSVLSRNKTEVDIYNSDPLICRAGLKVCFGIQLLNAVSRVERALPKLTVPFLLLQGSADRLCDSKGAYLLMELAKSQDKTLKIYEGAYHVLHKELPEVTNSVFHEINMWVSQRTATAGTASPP
# Assay: 2-AG assay: MAGL inhibitory activity by hydrolysis of 2-arachidonoylglycerol to arachidonic acid, followed by mass spectrometry
# Type: biochemical
# Conditions: 8 μM 2-arachidonoylglycerol, 15 min preincubation, 30 min reaction at RT, RapidFire MS readout
# In short: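 Activity was measured by RapidFire SPE–triple-quad MS as the ratio of arachidonic acid to d8-arachidonic acid after 2-AG hydrolysis (8 μM substrate, 30 min, RT, acetonitrile quench). Compounds, tested from 12.5 μM down to […], were first preincubated 15 min with MAGL in TRIS/EDTA/Tween-20 buffer containing 2.5% DMSO.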
row,Structure (SMILES),IC50
1,"CS(=N)(=O)c1cc(F)ccc1CC1CC2(C1)CN(C(=O)N1CC3(CC(c4nc(C5CC5)n[nH]4)C3)C1)C2 (centres unmarked) [Example 735, [6-(3-cyclopropyl-1H-1,2,4-triazol-5-yl)-2-azaspiro[3.3]heptan-2-yl]-[6-[4-fluoro-2-(methylsulfonimidoyl)benzyl]-2-azaspiro[3.3]heptan-2-yl]methanone]",2.34 nM
2,"Cc1sc(-c2ccc(C3CN(C(=O)N4CC5(CC(c6nnc(C7CC7)[nH]6)C5)C4)C3)cc2)nc1C(C)O (centres unmarked) [Example 840, [6-(5-cyclopropyl-4H-1,2,4-triazol-3-yl)-2-azaspiro[3.3]heptan-2-yl]-[3-[4-[4-(1-hydroxyethyl)-5-methyl-thiazol-2-yl]phenyl]azetidin-1-yl]methanone]",2.91 nM
3,O=C(N1CCN(Cc2ccc(C(F)(F)F)nc2)CC1)N1CC2(CC(c3nnc(C4CC4)[nH]3)C2)C1 [Example 842],133 nM
4,"NC1(c2nnc(C3CC4(C3)CN(C(=O)N3CC5(CC(Cc6ccc(C(F)(F)F)cc6F)C5)C3)C4)[nH]2)CC1 [Example 852, [6-[5-(1-aminocyclopropyl)-4H-1,2,4-triazol-3-yl]-2-azaspiro[3.3]heptan-2-yl]-[6-[[2-fluoro-4-(trifluoromethyl)phenyl]methyl]-2-azaspiro[3.3]heptan-2-yl]methanone]",0.06 nM
5,O=C(N1CCC(c2nn(C[C@H](O)C(F)(F)F)c3ccc(Cl)cc23)CC1)N1CC2(CC(c3nnc(C4CC4)[nH]3)C2)C1 [Example 864],14.3 nM
6,"O=C(N1CCC(c2nn(C[C@@H](O)C(F)(F)F)c3ccc(Cl)cc23)CC1)N1CC2(CC(c3nnc(C4CC4)[nH]3)C2)C1 [Example 865, [4-[5-chloro-1-[(2R)-3,3,3-trifluoro-2-hydroxy-propyl]indazol-3-yl]piperidino]-[6-(5-cyclopropyl-4H-1,2,4-triazol-3-yl)-2-azaspiro[3.3]heptan-2-yl]methanone]",19.4 nM
7,"O=C(c1ccc(-c2ccccn2)s1)N1CCN(C(=O)N2CC3(CC(c4nnc(C5CC5)[nH]4)C3)C2)CC1 [Example 870, [4-[6-(5-cyclopropyl-4H-1,2,4-triazol-3-yl)-2-azaspiro[3.3]heptane-2-carbonyl]piperazino]-[5-(2-pyridyl)-2-thienyl]methanone]",821 nM
8,"Cc1csc(C(=O)N2CCN(C(=O)N3CC4(CC(c5nnc(C6CC6)[nH]5)C4)C3)CC2)c1 [Example 872, [4-[6-(5-cyclopropyl-4H-1,2,4-triazol-3-yl)-2-azaspiro[3.3]heptane-2-carbonyl]piperazino]-(4-methyl-2-thienyl)methanone]",1040 nM
9,"Cc1nc(CN2CCN(C(=O)N3CC4(CC(c5nc(C6CC6)n[nH]5)C4)C3)CC2)co1 [Example 879, [6-(3-cyclopropyl-1H-1,2,4-triazol-5-yl)-2-azaspiro[3.3]heptan-2-yl]-[4-[(2-methyloxazol-4-yl)methyl]piperazino]methanone]",300 nM
10,"Cc1ncsc1CN1CCN(C(=O)N2CC3(CC(c4nc(C5CC5)n[nH]4)C3)C2)CC1 [Example 880, [6-(3-cyclopropyl-1H-1,2,4-triazol-5-yl)-2-azaspiro[3.3]heptan-2-yl]-[4-[(4-methylthiazol-5-yl)methyl]piperazino]methanone]",832 nM
11,"Cc1nn(C)c(Cl)c1CN1CCN(C(=O)N2CC3(CC(c4nc(C5CC5)n[nH]4)C3)C2)CC1 [Example 881, [4-[(5-chloro-1,3-dimethyl-pyrazol-4-yl)methyl]piperazino]-[6-(3-cyclopropyl-1H-1,2,4-triazol-5-yl)-2-azaspiro[3.3]heptan-2-yl]methanone]",670 nM
12,"COc1cc(Cl)ccc1CN(C)C1CN(C(=O)N2CC3(CC(c4nnc(C5CC5)[nH]4)C3)C2)C1 [Example 891, [3-[(4-chloro-2-methoxy-benzyl)-methyl-amino]azetidin-1-yl]-[6-(5-cyclopropyl-4H-1,2,4-triazol-3-yl)-2-azaspiro[3.3]heptan-2-yl]methanone]",34 nM
13,"Cc1csc(CN2CC3(C2)CN(C(=O)N2CC4(CC(c5nnc(C6CC6)[nH]5)C4)C2)C3)n1 [Example 895, [6-(5-cyclopropyl-4H-1,2,4-triazol-3-yl)-2-azaspiro[3.3]heptan-2-yl]-[6-[(4-methylthiazol-2-yl)methyl]-2,6-diazaspiro[3.3]heptan-2-yl]methanone]",23.5 nM
14,"Cn1ccc(CN2CC3(C2)CN(C(=O)N2CC4(CC(c5nc(C6CC6)n[nH]5)C4)C2)C3)n1 [Example 902, [6-(3-cyclopropyl-1H-1,2,4-triazol-5-yl)-2-azaspiro[3.3]heptan-2-yl]-[6-[(1-methylpyrazol-3-yl)methyl]-2,6-diazaspiro[3.3]heptan-2-yl]methanone]",3110 nM
15,COc1cc(COC2CCN(C(=O)N3CC4(CC(c5nc(C6CC6)n[nH]5)C4)C3)CC2)ccc1C#N [Example 904],159 nM

# More lines, in order of falling IC50, values ahead:
row,IC50,Structure (SMILES)
1,806 nM,O=C(N1CCN(Cc2ccc(C(F)(F)F)cn2)CC1)N1CC2(CC(c3nnc(C4CC4)[nH]3)C2)C1 [Example 876]
2,352 nM,"COc1cc(C(N)=O)ccc1COC1CCN(C(=O)N2CC3(CC(c4nnc(C5CC5)[nH]4)C3)C2)CC1 [Example 885, 4-[[1-[6-(5-cyclopropyl-4H-1,2,4-triazol-3-yl)-2-azaspiro[3.3]heptane-2-carbonyl]-4-piperidyl]oxymethyl]-3-methoxy-benzamide]"
3,342 nM,"CNc1ccc(C(=O)N2CCN(C(=O)N3CC4(CC(c5nnc(C6CC6)[nH]5)C4)C3)CC2)cc1 [Example 871, [4-[6-(5-cyclopropyl-4H-1,2,4-triazol-3-yl)-2-azaspiro[3.3]heptane-2-carbonyl]piperazino]-[4-(methylamino)phenyl]methanone]"
4,125 nM,O=C(N1CCC(COc2ccc(C(F)(F)F)nc2)CC1)N1CC2(CC(c3nnc(C4CC4)[nH]3)C2)C1 [Example 903]
5,100 nM,NC(=O)c1cc(Cl)cnc1OCC1CCN(C(=O)N2CC3(CC(c4nc(C5CC5)n[nH]4)C3)C2)CC1 [Example 899]
6,95.2 nM,"COc1cc(Cl)ccc1CN(C)C1CCN(C(=O)N2CC3(CC(c4nnc(C5CC5)[nH]4)C3)C2)CC1 [Example 893, [4-[(4-chloro-2-methoxy-benzyl)-methyl-amino]piperidino]-[6-(5-cyclopropyl-4H-1,2,4-triazol-3-yl)-2-azaspiro[3.3]heptan-2-yl]methanone]"
7,59.6 nM,COc1cc(C#N)ccc1COC1CCN(C(=O)N2CC3(CC(c4nnc(C5CC5)[nH]4)C3)C2)CC1 [Example 861]
8,56.6 nM,N#Cc1cc(Cl)cnc1OCC1CCN(C(=O)N2CC3(CC(c4nc(C5CC5)n[nH]4)C3)C2)CC1 [Example 908]
9,43.1 nM,"CS(=O)(=O)c1cc(C(F)(F)F)ccc1COC1CCN(C(=O)N2CC3(CC(c4nc(C5CC5)n[nH]4)C3)C2)CC1 [Example 907, [6-(3-cyclopropyl-1H-1,2,4-triazol-5-yl)-2-azaspiro[3.3]heptan-2-yl]-[4-[2-mesyl-4-(trifluoromethyl)benzyl]oxypiperidino]methanone]"
10,12.3 nM,"CS(=O)(=O)c1cc(Cl)ccc1CC1CC2(CCN(C(=O)N3CC4(CC(c5nnc(C6CC6)[nH]5)C4)C3)C2)C1 (centres unmarked) [Example 892, [2-(4-chloro-2-mesyl-benzyl)-6-azaspiro[3.4]octan-6-yl]-[6-(5-cyclopropyl-4H-1,2,4-triazol-3-yl)-2-azaspiro[3.3]heptan-2-yl]methanone]"
11,9.72 nM,"Cc1cn(-c2ccc(C3CN(C(=O)N4CC5(CC(c6nnc(C7CC7)[nH]6)C5)C4)C3)cc2)cn1 [Example 806, [6-(5-cyclopropyl-4H-1,2,4-triazol-3-yl)-2-azaspiro[3.3]heptan-2-yl]-[3-[4-(4-methylimidazol-1-yl)phenyl]azetidin-1-yl]methanone]"
12,5.61 nM,"O=C(N1CCC(OCc2ccc(C(F)(F)F)cc2F)CC1)N1CC2(CC(c3nc(C4CC4)n[nH]3)C2)C1 [Example 906, [6-(3-cyclopropyl-1H-1,2,4-triazol-5-yl)-2-azaspiro[3.3]heptan-2-yl]-[4-[2-fluoro-4-(trifluoromethyl)benzyl]oxypiperidino]methanone]"
13,4.23 nM,"N#Cc1[nH]nnc1-c1ccc(C2CN(C(=O)N3CC4(CC(c5nnc(C6CC6)[nH]5)C4)C3)C2)cc1 [Example 910, 4-[4-[1-[6-(5-cyclopropyl-4H-1,2,4-triazol-3-yl)-2-azaspiro[3.3]heptane-2-carbonyl]azetidin-3-yl]phenyl]-1H-triazole-5-carbonitrile]"
14,0.93 nM,"CS(=O)(=O)c1ccccc1-c1ccc(C2CN(C(=O)N3CC4(CC(c5nc(C6(O)CC6)n[nH]5)C4)C3)C2)cc1 [Example 781, [6-[3-(1-hydroxycyclopropyl)-1H-1,2,4-triazol-5-yl]-2-azaspiro[3.3]heptan-2-yl]-[3-[4-(2-mesylphenyl)phenyl]azetidin-1-yl]methanone]"
15,0.43 nM,"O=C(N1CC2(CC(c3nnc(C4CC4)[nH]3)C2)C1)C12C3C4C1C1C2C3C41Nc1cnc(C(F)(F)F)cn1 (centres unmarked) [Example 811, [6-(5-cyclopropyl-4H-1,2,4-triazol-3-yl)-2-azaspiro[3.3]heptan-2-yl]-[4-[[5-(trifluoromethyl)pyrazin-2-yl]amino]cuban-1-yl]methanone]"
16,0.08 nM,Cc1cc(C(F)(F)F)cnc1OC1CC2(CCN(C(=O)N3CC4(CC(c5nc(C6CC6)n[nH]5)C4)C3)CC2)C1 [Example 836]
17,0.02 nM,O=C(N1CC2(CC(Cc3ccc4c(C(F)(F)F)cn(CCO)c4n3)C2)C1)N1CC2(CC(c3nc(C4CC4)n[nH]3)C2)C1 [Example 858]
